The source of these data is ChEMBL document CHEMBL1157539, “Thousands of chemical starting points for antimalarial lead identification” (Nature, 2010).

Molecules are shown by their SMILES.

For the assay, the system named is Plasmodium falciparum. Briefly: GSK_TCMDC: Inhibition of Plasmodium falciparum 3D7 in whole erythrocytes, using parasite LDH activity as an index of growth. It counts as functional, organism-based. As to conditions: Plasmodium falciparum, 3D7.
As for `COc1ccc2c(N/N=C/c3ccccc3[N+](=O)[O-])cc(C)nc2c1`, the XC50 was 716 nM.
For `O=C(Nc1n[nH]c2nc(-c3ccco3)c(Br)cc12)c1ccc(CN2CCCC2)cc1`, the XC50 came to 791 nM.
Under `CCN(CC)CCN(Cc1ccc(-c2ccc(C(F)(F)F)cc2)cc1)C(=O)Cn1cc(CCCCc2cccc(F)c2F)c(=O)c2ccccc21` stands 883 nM; under `OCCNc1nc(Nc2ccccc2)nc2ccccc12`, 128 nM; under `Cc1[nH]c2ccccc2c1C(=O)C(C)Sc1nnc(-c2ccccc2Br)[nH]1` (configuration not stated), 34.8 nM.
Turning to `O=C(/C=C/c1ccc(Cl)c(Cl)c1)NC1CCN(CCNC(=O)c2cccc(Cl)c2)CC1`, the XC50 stood at 550 nM.
Under `COc1cc2c(cc1OCCN1CCC(N3CCCC3)CC1)N(C(=O)/C=C/c1ccccc1Cl)CC2` stands 659 nM.
Consider `COCc1cccc(-c2cc(-c3ccc(S(C)(=O)=O)cc3)cnc2N)c1`, for which the XC50 worked out at 1000 nM.
Under `N=c1n(Cc2ccccc2)c2ccccc2n1CC(O)c1ccc(Cl)cc1` (configuration not stated) stands 879 nM; under `CC(C)(Oc1ccc(Cl)cc1)C(=O)NCCC1CCN(CCCCCNC(=O)/C=C/c2ccc(Cl)c(Cl)c2)CC1`, 936 nM; under `Cc1ccc(F)c(OCC2CCN(c3ncc(C(=O)NC4CC4)cc3Cl)CC2)c1`, 902 nM.
Under `O=C(/C=C/c1ccc(Cl)c(Cl)c1)NCCCCCN1CCC(CCCNC(=O)Nc2ccc(C(F)(F)F)cc2)CC1` stands 872 nM; under `Cc1cccc(C(=O)Nc2ccnc(N(C)CCCN(C)Cc3cccc(C#N)c3)c2)c1`, 1320 nM; under `CC(CCc1ccccc1)NCC(O)c1ccc2c3c(cccc13)C(=O)N2C` (configuration not stated), 812 nM.
Under `CCC(C)NC(=O)Cn1c2ncccc2c(=O)n1-c1ccc(C)cc1` (configuration not stated) stands 1260 nM; under `CN(C)c1ccc(CN2CCC(NC(=O)c3ccc(-c4ccccc4F)s3)CC2)cc1`, 1120 nM.
With `CCCNC(=O)c1ccc(N2CCC(c3ccccc3C)CC2)nc1`, the XC50 was found to be 1520 nM.
As for `O=C(Nc1ccc(N2CCCCC2)c(Cl)c1)c1nc[nH]n1`, the XC50 is 449 nM.
Under `O=C(Nc1ccc(Cn2ncc(N3CCCNCC3)c(Cl)c2=O)cc1)Nc1ccc(C(F)(F)F)cc1` stands 731 nM.
Turning to `CCN(CC)CCCN(CCCN(CC)CC)c1cc(C)nc(Nc2ccc(Cl)cc2)n1`, the XC50 worked out at 211 nM.
Under `O=C(O)C1CC(=O)N(c2ccc(Cl)cc2)C1` (configuration not stated) stands 219 nM; under `Cc1cccc(N2CCN(C3CCC(NC(=O)c4cc5ccccc5[nH]4)CC3)CC2)c1C` (configuration not stated), 609 nM.
Under `COc1ccc(OCc2ccccn2)c(C2CCN(CCCCNC(=O)c3ccc(NC(=O)c4ccc(Cl)cc4)cc3)CC2)c1` stands 764 nM; under `CSC1=NC(=Nc2c(C)cccc2C)C2(CCCCC2)N1c1ccccc1Cl`, 817 nM; under `CC(C)NCc1ccc(-c2ccc(NS(=O)(=O)c3cccc4cccnc34)cc2)cc1`, 807 nM.
The figure for `COc1ccc(-c2cnc(N)c(-c3nc4cc(Br)ccc4[nH]3)c2)cc1` is 1560 nM; for `O=C(Nc1ccc(-c2cccc(-c3nc4cc(F)ccc4[nH]3)c2)cc1)Nc1ccc(Cl)c(Cl)c1` it is 647 nM; for `COc1ccc(C=NNc2cc(C)nc3ccc(OC)cc23)c(OC)c1` it is 778 nM.
`CN(CCN(C)CC(O)c1ccc(Cl)c(Cl)c1)CC(O)c1ccc(Cl)c(Cl)c1` (configuration not stated) had an XC50 of 1100 nM.
As to `Cn1nc(C(F)(F)F)c(-c2ccc(F)cc2)c1NC(=O)Nc1ccccc1`, the XC50 worked out at 804 nM.
The figure for `CN(C)c1ccc2c(c1)Sc1cc(N(C)C)ccc1N2C(=O)CCCC(=O)O` is 802 nM.
`CCCN1CCN(CCCCNc2c3ccccc3nc3ccccc23)CC1` registered an XC50 of 409 nM.
Under `Cc1noc(C)c1-c1ccc(C(=C2CCCCCC2)c2ccc(O)cc2)cc1` stands 189 nM; under `CC[C@H]1CN2CC[C@H]1C[C@H]2[C@H](O)c1cc(N2CCCC(C(=O)N(CC)CC)C2)nc2ccc(OC)cc12` (some centres not stated), 73.1 nM; under `O=C(Nc1ccc(-c2ccc(-c3nc4cc(C(F)(F)F)ccc4[nH]3)s2)cc1)c1ccoc1`, 854 nM.
The compound `O=C(CN1CCC(NCc2cnc(-c3ccc(Cl)cc3)[nH]2)CC1)N1CCc2ccccc21` showed an XC50 of 650 nM.
As to `CNCCNCc1cccc(-c2cccc(-c3nc4cccc(C)c4[nH]3)c2)c1`, the XC50 was found to be 766 nM.
The figure for `COc1ccccc1/C=C/C(=O)N(C)C1CCN(CCCCCNC(=O)/C=C/c2ccc(Cl)c(Cl)c2)CC1` is 438 nM; for `COc1ccccc1-c1csc(C(=O)NCC2CCN(Cc3ccc(C(C)(C)C)cc3)C2)c1` (configuration not stated) it is 1110 nM; for `CCNc1cc(C)nc(Nc2ccc(NC(=O)c3c(F)cccc3Cl)cc2)n1` it is 1120 nM.
For the compound `O=C(/C=C/c1ccc(Cl)c(Cl)c1)NCCCCCN1CCC(NC(=O)Nc2ccc(Br)cc2)CC1`, the XC50 was determined as 567 nM.
Under `CNC(=O)c1cnc(Nc2ccc(N3CCN(C)CC3)cc2)nc1Nc1cccc(OC)c1` stands 752 nM.
The figure for `CCOC(=O)c1c(C)n(-c2ccccc2)c2ccc(OC(=O)COc3ccc(Cl)cc3Cl)cc12` is 429 nM; for `COc1ccc(CCN(C)CCCCc2ccc(NC(=O)c3cccc4c(=O)c5cc(F)ccc5sc34)cc2)cc1OC` it is 897 nM.
The figure for `CC(C)CNCc1ccc(-c2cccc(CN(C(=O)NCCc3ccccc3)C3CCN(Cc4ccccc4)CC3)c2)cc1` is 579 nM; for `CCc1ccc(Cc2cnc3nc(N)nc(N)c3c2C)cc1` it is 202 nM.
`CC(C)CNCc1cccc(-c2ccc(CN(CCCN3CCN(C)CC3)C(=O)/C=C/c3ccccc3)cc2)c1` registered an XC50 of 857 nM.
The figure for `NC(=O)c1ccccc1OCC(=O)Nc1cccc(-c2ccc(-c3nc4ccccc4[nH]3)cc2)c1` is 786 nM.
The figure for `Cc1cc(OCC2CCCN(c3ncc(C(=O)NC4CC4)cc3Cl)C2)ccc1F` (configuration not stated) is 1490 nM.
The figure for `Cc1ccc(NS(=O)(=O)c2ccc(C(C)N3CCC(N4CCCCC4)CC3)cc2)cc1C` (configuration not stated) is 763 nM.
In turn, `CCN(CC)CCCOC(=O)c1ccc2c(c1)-c1ccc(C(=O)OCCCN(CC)CC)c3cccc-2c13` came in with an XC50 of 933 nM.
Compound `COc1cccc(-c2cnc(N)c(-c3nc4ccc(C(F)(F)F)cc4[nH]3)c2)c1` had an XC50 of 652 nM.
Under `CCC(C)c1cccc(C(C)CC)c1OCCCON1C(N)=NC(N)=NC1(C)C` (configuration not stated) stands 20 nM; under `FC(F)(F)c1ccc(COc2cc(Cl)ccc2Cn2ccnc2)cc1`, 649 nM; under `CC(C)C[C@H](NC(=O)c1ccc(OCCN2CCOCC2)cc1)C(=O)N[C@H](/C=N/N1CCN(C)C1=O)CCc1ccccc1`, 294 nM.
`Cc1nnsc1C(=O)Nc1cccc(-c2ccc(-c3nc4cc(F)ccc4[nH]3)cc2)c1`: the XC50 is 96.2 nM.
Under `COc1cccc(NC(=O)Nc2cc(-c3ccc4[nH]ncc4c3)cc3c2CNC3=O)c1` stands 117 nM; under `CN1CCC(NCc2ccc(-c3ccc(S(=O)(=O)NCc4ccccc4)cc3)cc2)CC1`, 832 nM.
The figure for `COc1ccc(C2CC(=O)C3=C(C2)NC(C)=C(C(=O)OC(C)C)C3c2ccc(O)cc2)cc1OC` (configuration not stated) is 278 nM.
The figure for `COc1cccc(C(O)CNc2ccnc(Nc3cccc(-c4csc(C)n4)c3)n2)c1` (configuration not stated) is 786 nM; for `CC(C)(C)c1ccc(CN2CCC(NC(=O)c3ccc(-c4cccc(Cl)c4)s3)CC2)cc1` it is 1070 nM.
In turn, `CC(C)c1ccc(Cn2cc(-c3ccncc3)c3cc(OCc4ccccc4)ccc32)cc1` displayed an XC50 of 706 nM.
Under `CCc1c(C)nc(-n2nc(C)cc2NC(=O)CCc2ccccc2)[nH]c1=O` stands 752 nM.
Under `C=C1C[C@@H](n2cnc3c(NC(=O)c4ccccc4)ncnc32)[C@@H](F)[C@@H]1OC(c1ccccc1)(c1ccccc1)c1ccccc1` stands 145 nM; under `CCOC(=O)CNC(=O)N1CCN(C(=O)NCC(=O)OCC)CC1`, 848 nM; under `O=[N+]([O-])c1ccc(-n2nc(Cc3ccccc3)n(Cc3cccc(F)c3)c2=S)c(C(F)(F)F)c1`, 769 nM.
The figure for `Cc1cc(=NN=Cc2ccccc2Cl)c2ccc(F)cc2[nH]1` is 257 nM.
Take `O=C(Nc1ccc(CN2CCOCC2)cc1)c1ccc(-c2ccc(Br)cc2)o1`: the XC50 was 1120 nM.
The figure for `COc1nc(N)ncc1C(=O)NC1CN2CCC1CC2` (configuration not stated) is 235 nM; for `CCCCCCCSc1ccc(CC(C)NCC(O)c2cccc(Cl)c2)cc1` (configuration not stated) it is 178 nM; for `COc1cccc2cc(C(=O)N[C@@H](CC(C)C)C(=O)N[C@H](/C=N/NC(=O)N3CCN(C)CC3)CCc3ccccc3)oc12` it is 616 nM.
`CCOc1cc(OCC)c2ccccc2c1CNCCCCCCNCc1c(OCC)cc(OCC)c2ccccc12` came in with an XC50 of 305 nM.
The figure for `Clc1ccc(CNc2nc(NCCc3c[nH]cn3)nc(NC3CCCCC3)n2)cc1` is 209 nM; for `O=C(Nc1cccc(CN2CCCN(Cc3cccnc3)CC2)c1)c1ccc(Cl)c(Cl)c1` it is 928 nM.
Under `CCCCc1ccc(-c2nc(NC(=O)Nc3[nH]c(-c4ccccc4)nc3C(=O)OCC)c(C(=O)OCC)[nH]2)cc1` stands 752 nM.
The figure for `CC(NCC(O)Cn1c2ccccc2c2ccccc21)c1ccccc1` (configuration not stated) is 931 nM; for `Cc1nc2nc(N)nc(N)c2c(C)c1Cc1ccccc1` it is 248 nM.
`O=c1cc(NCCCNCc2cc3ccccc3s2)[nH]c2ccccc12`: the XC50 amounted to 1270 nM.
Under `N#Cc1cnc(Nc2ccc(Oc3ccccc3)cc2)nc1Nc1cccc(S(N)(=O)=O)c1` stands 555 nM.
The figure for `COCCNCc1ccc(-c2ccccc2CNC2CCN(Cc3ccccc3)CC2)cc1` is 975 nM; for `Cc1[nH]c2c(C)cccc2c1C1CCN(CCC2CCN(C(=O)/C=C/c3ccc(Cl)c(Cl)c3)CC2)CC1` it is 636 nM.
Take `CN(CC(=O)Nc1ccc(F)cc1)C(=O)c1ccc(-c2ccc(F)cc2)o1`: the XC50 came to 934 nM.
In turn, `COc1ccc(-c2cnc(N)nc2N)cc1Cl` displayed an XC50 of 1400 nM.
The figure for `CN(C)c1ccc(-c2csc(C(=O)NCC3CCN(CC4CCCCC4)C3)c2)cc1` (configuration not stated) is 1140 nM.
The figure for `CCN(CCCN1CCCCC1)c1cc(C)nc(Nc2ccc(Oc3ccccc3)cc2)n1` is 298 nM.
The figure for `COc1ccc(C=CC(=O)N2CCC(CN3CCC(c4c[nH]c5ccccc45)CC3)CC2)cc1OC` is 1070 nM; for `COc1ccc(CCC(C)N2CC(N)C(c3cn(C)c4cnccc34)C2)cc1` (configuration not stated) it is 1360 nM.
